Measured values taken from patent publication US11985974B2, “Antimicrobial ferulic acid derivatives and uses thereof” (WISCONSIN ALUMNI RESEARCH FOUNDATION, priority 2014, dated 2024).

Key:
[1] = test system: Alternaria solani (field isolate); assay: Colony growth of A. solani on plates; type: cell-based; conditions: 0, 500, 1,000, 1,500 μg/mL, dose-dependent
Description: (§1) To test inhibition in liquid culture, a dose curve of 0, 125, 250, and 500 μg/mL poacic acid in 100 mL potato dextrose broth (n=3) was used. Cultures of S. sclerotiorum strain 1980 were inoculated with 100 μL homogenized mycelia and grown at 25° C. for 48 h. The mycelia in the liquid media were dried and weighed. The growth inhibition of poacic acid on solid agar cultures (potato dextrose agar) was assessed by generating replicate plates (n=3) containing 0, 125, 250, and 500 μg/mL poacic acid. Plates were inoculated with an actively growing plug of S. sclerotiorum and grown at 25° C. The mycelial radial growth after 48 h was measured Inhibition of S. sclerotiorum in planta was tested by inoculating detached soybean leaves of the commercial variety Williams 82 with an agar plug of actively growing S. sclerotiorum mycelia. Leaves were treated one time before inoculation with either an aerosol spray of water with DMSO (control) or a 500 μg/mL solution of poacic acid. Leaves were incubated in a moist environment, and lesion development was monitored up to 120 h postinoculation. […] The growth inhibition of poacic acid was assessed at 0, 500, 1,000, and 1,500 μg/mL in replicate plates (n=3). […] Colony diameter was monitored for each treatment in a time-course experiment. […]

[2] = test system: S. cerevisiae (BY4741 his3Δ::KanMX); assay: Multivariate morphological analysis (CalMorph); type: cell-based, Saccharomyces cerevisiae
Description: Cells of budding yeast S. cerevisiae (BY4741 his3Δ::KanMX; hereafter, his3Δ) were cultured in 2 mL 1% Bacto yeast extract (BD Biosciences), 2% Bacto peptone (BD Biosciences), and 2% glucose (YPD) with 0, 25, 50, 75, 100, or 125 μg/mL poacic acid or a DMSO control at 25° C. for 16 h until the early log phase. The maximum concentration of the drug (125 μg/mL) was determined based on the growth inhibition rates (10%). Cell fixation, staining, and observation were performed (n=5) as described previously (Ohya et al. 2005). Images of cell shape, actin, and nuclear DNA were analyzed using the image processing software CalMorph (version 1.2), which extracted a total of 501 morphological quantitative values from at least 200 individual cells in each experiment (Ohya et al. 2005). Images were processed using Photoshop CS2 (Adobe Systems) for illustrative purposes.
To assess the morphological similarity between the cells treated with poacic acid and nonessential deletion mutants or cells treated with other cell wall-affecting drugs, their morphological profiles were compared as described previously (Ohnuki et al. 2010). To identify functional gene clusters, the most significant similar mutants (43 genes, P<0.01 after Bonferroni correction, t test) were selected as a query for GO term analysis (GO term finder in the Saccharomyces genome database).
To extract independent and characteristic features of morphology induced by poacic acid, a two-step principal component analysis was performed as described previously (Ohnuki et al. 2012). To compare phenotypic noise in the yeast population (poacic acid vs. DMSO), the noise score was calculated as described previously (Yvert et al. 2013).

S. sclerotiorum = assay: Inhibition of S. sclerotiorum in planta on detached soybean leaves; type: in vivo, Sclerotinia sclerotiorum on soybean (Williams 82); conditions: single aerosol treatment 500 μg/mL before inoculation, up to 120 h postinoculation
Description: as §1

[3] = Cell-free glucan staining (binding to purified yeast glucan); conditions: 0.125% (wt/vol) poacic acid, fluorescence
Description: (§2) β-1,3-Glucan was stained with aniline blue (016-21302; Wako Chemicals) as described previously (Watanabe et al. 2001) with slight modification. Briefly, log-phase yeast cells (his3Δ) were cultured in YPD with poacic acid (125 μg/mL) at 25° C. Then, cells were collected at 0, 2, 4, and 6 h after treatment and stained with aniline blue without fixation as described previously (Okada et al. 2015). Cells mounted on a glass slide were exposed to UV for 30 s to bleach out poacic acid fluorescence before acquiring images. Staining of chitin or mannoproteins with calcofluor white (F3543; Sigma-Aldrich) or Alexa594-ConA (C11253; Life Technologies), respectively, was performed as described previously (Okada et al. 2015). For cell-free glucan staining, yeast glucan (G0331; Tokyo Chemical Industry) was suspended to 0.125% (wt/vol) poacic acid and observed under a fluorescent microscope using a regular DAPI filter set (Carl Zeiss).

yeast cells (his3Δ) = assay: Mannoprotein and glucan staining (aniline blue, Con A); type: cell-based, Saccharomyces cerevisiae; conditions: 125 μg/mL, 6 h
Description: as §2

P. sojae (field isolate) = assay: Colony growth of P. sojae on plates; type: cell-based, Phytophthora sojae; conditions: 0, 500, 1,000, 1,500 μg/mL, 7 d, P<0.01
Description: as §1

yeast cells = assay: Cell leakage assay (FungaLight, flow cytometry); type: cell-based, Saccharomyces cerevisiae; conditions: 4 h
Description: A FungaLight Cell Viability Assay (L34952; Invitrogen) using a Guava Flow Cytometer (Millipore) was used to determine if poacic acid caused membrane damage. The population of stained cells (damaged integrity) vs. nonstained cells can be determined by flow cytometry. Caspofungin (50 ng/mL) was included as a positive control. MMS and DMSO were included as a noncell wall-targeting control and a solvent control, respectively. To test the effects of the compounds on both active and arrested cells, log-phase cultures were washed with 1×PBS and resuspended to an OD0.5 in either YPD medium or YP (no carbon source) in the presence of the drugs (n=3) for 4 h at 30° C. The cells were then stained and immediately read by flow cytometry. One-way ANOVA and Tukey's test were used to calculate the difference between drug treatments among cells with arrested growth.

Q: What does the source list for `COc1cc(/C=C/c2cc(/C=C/C(=O)O)cc(OC)c2O)ccc1O` [poacic acid, (E)-4-Hydroxy-3-{2-[(E)-4-hydroxy-3-methoxystyryl]}-5-methoxycinnamic acid]?
A: colony growth on plates [1]: significantly (P<0.01) inhibited; bud neck size ([2]; 0-125 μg/mL, 16 h): dose-dependent increase in bud neck size; heterogeneity of cell morphology ([2]; 0-125 μg/mL, 16 h): heterogeneous morphologies; inhibition at 125 µg/mL ([2]; Saccharomyces cerevisiae, read-out: growth inhibition rates): 10%; morphological correlation with other cell wall-affecting compounds ([2]; vs micafungin, echinocandin B and other cell wall-affecting compounds): lower morphological correlations; lesion development on detached soybean leaves (S. sclerotiorum): markedly reduced lesion development; binding to purified yeast glucan [3]: directly binds β-1,3-glucan; glucan staining with aniline blue in buds (yeast cells (his3Δ)): significantly decreased glucan staining in buds; mannoprotein staining with Con A (yeast cells (his3Δ)): does not change mannoprotein staining; colony growth (P. sojae (field isolate)): significantly reduces colony growth; cell leakage (propidium iodide uptake) (yeast cells; actively growing cells (YPD)): caused rapid cell leakage; cell leakage (propidium iodide uptake) (yeast cells; arrested cells without carbon source (YP)): leakage was still significantly greater
